Strand notation (5' to 3'): a small letter for the sugar, then the base; units joined by * are phosphorothioate-linked, units joined directly phosphodiester-linked; [ ] holds rarer units or linkages, { } end groups; capitals alone tell only the bases. e = 2'-O-(2-methoxyethyl) (MOE); k = constrained ethyl (cEt); [5mC] = 5-methylcytosine; d = 2'-deoxy (DNA)
How the values were obtained:
[1] = tested on: Yap1 mRNA; test: Inhibition of human Yap1 mRNA in SNU449 hepatocellular carcinoma xenograft tumors (Example 26); type: in vivo; conditions: SNU449 xenografts in NSG mice, 50 mg/kg twice weekly for five days, relative to PBS treated animals
Procedure: A SNU449 hepatocellular carcinoma xenograft tumor model was used to evaluate activity of modified oligonucleotides targeted to human Yap1. Ten million SNU449 cells in 30% matrigel were implanted subcutaneously into the flanks of female NOD Cg-Prkdcscid ll2rgtm1Wjl/SzJ (NSG) mice (from Jackson Laboratory) at 4-6 weeks of age. When tumors reached an average volume of 100 mm^3, approximately two weeks post-implantation, groups of four mice each were administered at 50 mg/kg twice weekly with modified oligonucleotides for five days. Tumors were collected and tested for Yap1 mRNA knockdown by RT-qPCR. Yap1 mRNA levels were measured as previously described using the Human Yap1 primer-probe set RTS4814. Yap1 mRNA levels were normalized to actin-beta content, as measured by primer probe set RTS5002. Results are presented in the tables below as percent control of the amount of Yap1 mRNA relative to PBS treated animals (% control).

[2] = tested on: Yap1 mRNA; test: Dose-dependent inhibition of human Yap1 in SNU-449 cells (Example 9, RTS36584); type: cell-based; conditions: free uptake; for % UTC (Yap1 mRNA): approximately 48 hours; for IC50: linear regression on a log/linear plot
Summary of the method: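 Read-out was Yap1 mRNA (primer-probe RTS36584) normalised to total RNA by RIBOGREEN, given as % of untreated cells, with IC50 fitted by linear regression of log/linear data. Oligonucleotides were dosed by free uptake to SNU-449 cells, 10,000/well, for ~48 h.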

[3] = Tolerability in CD-1 mice, plasma chemistry markers (Example 15); type: in vivo; conditions: male CD-1 mice, 50 mg/kg s.c. twice a week for four weeks (8 treatments), day 26
Procedure: CD-1 mice were treated with modified oligonucleotides selected from studies described above and evaluated for changes in the levels of various plasma chemistry markers.
(§1) Groups of four male CD-1 mice at 4-5 weeks of age (obtained from Charles River) were injected subcutaneously twice a week for four weeks (for a total of 8 treatments) with 50 mg/kg of modified oligonucleotides. One group of male CD-1 mice was injected with PBS. Mice were euthanized on day 26 post start of treatment (24 hrs following the final administration).

[4] = tested on: Yap1 mRNA; test: Dose-dependent inhibition of human Yap1 in A-431 cells (Example 7, 10,000 cells per well, RTS36584); type: cell-based; conditions: free uptake, approximately 48 hours; for Yap1 mRNA, % UTC: A-431 cells, 10,000 cells per well
Summary of the method: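 Yap1 mRNA was expressed as percent of untreated control after normalization to total RNA (RIBOGREEN), and IC50 was derived by log/linear linear regression. The read-out used primer-probe set RTS36584 roughly 48 hours after free-uptake dosing of oligonucleotides into A-431 cells (10,000 cells/well).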

[5] = Tolerability in Balb/c mice, plasma chemistry markers (Example 11); type: in vivo; conditions: 50 mg/kg subcutaneously twice a week for four weeks
Procedure: Balb/c mice were treated with modified oligonucleotides selected from studies described above and evaluated for changes in the levels of various plasma chemistry markers.
as §1, with “of” for “of four”, “Balb/c” for “CD-1”, “4-6” for “4-5”, “Taconic)” for “Charles River)”, “hours” for “hrs”

[6] = Tolerability in CD-1 mice, body and organ weights (Example 15); type: in vivo; conditions: male CD-1 mice, 50 mg/kg s.c. twice a week for four weeks (8 treatments), end of study (day 26)
Procedure: as §1
(§2) Body weights of CD-1 mice were measured at the end of the study, and the average body weight for each group is presented in the table below. Modified oligonucleotides that caused any changes in organ weights outside the expected range for modified oligonucleotides were excluded from further studies.

[7] = tested on: Yap1 mRNA; test: Dose-dependent inhibition of human Yap1 in A-431 cells (Example 6, 5,000 cells per well, RTS4814); type: cell-based; conditions: Table 54, A-431 cells
Summary of the method: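 A-431 cells (5,000/well) took up oligonucleotides by free uptake at various doses for about 48 h. Yap1 mRNA was measured by RT-PCR (RTS4814), normalised to RIBOGREEN total RNA and expressed as % untreated control; IC50 by linear regression on a log/linear plot.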

[8] = Tolerability in Balb/c mice, body and organ weights (Example 11); type: in vivo; conditions: 50 mg/kg subcutaneously twice a week for four weeks, end of study
Procedure: as §1, with “of” for “of four”, “Balb/c” for “CD-1”, “4-6” for “4-5”, “Taconic)” for “Charles River)”, “hours” for “hrs”
as §2, with “Balb/c” for “CD-1”

Substance: 1198641 (kA*kT*dT*dA*dG*dA*dG*dT*dA*dT*dG*dT*kG*eG*k[5mC]*eA; antisense) [compound 1198641]
- Yap1 mRNA in tumors, % control [1]: 68 % control
- % UTC (Yap1 mRNA) ([2]; 31.3 nM): 55 % UTC
- % UTC (Yap1 mRNA) ([2]; 125.0 nM): 29 % UTC
- % UTC (Yap1 mRNA) ([2]; 500.0 nM): 11 % UTC
- % UTC (Yap1 mRNA) ([2]; 2000.00 nM): 3 % UTC
- IC50 [2]: 30 nM

Substance: 1198501 (kG*kA*dT*dT*dT*dA*dG*dG*dA*dT*dG*e[5mC]*kA*eT*kG*eG; antisense) [compound 1198501]
- Yap1 mRNA in tumors, % control [1]: 54 % control
- % UTC (Yap1 mRNA) ([2]; 31.3 nM): 65 % UTC
- % UTC (Yap1 mRNA) ([2]; 125.0 nM): 36 % UTC
- % UTC (Yap1 mRNA) ([2]; 500.0 nM): 17 % UTC
- % UTC (Yap1 mRNA) ([2]; 2000.00 nM): 11 % UTC
- IC50 [2]: 100 nM

Substance: 1074461 (kG*kA*kA*dA*dT*dT*dG*dT*d[5mC]*dT*d[5mC]*dA*dT*kG*k[5mC]*k[5mC]) [compound 1074461]
- % UTC (Yap1 mRNA) ([2]; 31.3 nM): 76 % UTC
- % UTC (Yap1 mRNA) ([2]; 125.0 nM): 37 % UTC
- % UTC (Yap1 mRNA) ([2]; 500.0 nM): 15 % UTC
- % UTC (Yap1 mRNA) ([2]; 2000.00 nM): 5 % UTC
- IC50 [2]: 100 nM
- ALB [3]: 2.2 g/dL
- ALT [3]: 1563 U/L
- AST [3]: 865 U/L

Substance: 716454 (antisense k[5mC]*kG*kA*dG*dA*dT*dT*dT*dA*dA*dA*dT*dA*kA*kG*kG) [compound 716454]
- Yap1 mRNA, % UTC ([4]; 15.6 nM): 84 % UTC
- Yap1 mRNA, % UTC ([4]; 62.5 nM): 39 % UTC
- Yap1 mRNA, % UTC ([4]; 4000.00 nM): 6 % UTC
- IC50 ([4]; A-431 cells, linear regression on log/linear plot): 100 nM
- ALT [5]: 39 U/L
- AST [5]: 60 U/L
- BUN [5]: 14 mg/dL
- TBIL [5]: 0.18 mg/dL
- Kidney weight [6]: 0.55 g
- Liver weight [6]: 2.31 g
- Spleen weight [6]: 0.20 g
- body weight [6]: 38 g
- ALB [3]: 2.3 g/dL
- ALT [3]: 44 U/L
- AST [3]: 56 U/L
- IC50 ([7]; Yap1 mRNA, linear regression on a log/linear plot): 2600 nM
- % UTC 148 nM ([7]; free uptake, 148 nM, approximately 48 hours, RTS4814): 91 % UTC
- % UTC 444 nM ([7]; free uptake, 444 nM, approximately 48 hours, RTS4814): 71 % UTC
- % UTC 1333 nM ([7]; free uptake, 1333 nM, approximately 48 hours, RTS4814): 54 % UTC
- % UTC 4000 nM ([7]; free uptake, 4000 nM, approximately 48 hours, RTS4814): 48 % UTC
- Kidney weight [8]: 0.42 g
- Liver weight [8]: 1.48 g
- Spleen weight [8]: 0.14 g
- body weight [8]: 25 g
